# Measurements published in US7214686B2, “Pharmaceutical compositions and methods for effecting dopamine release” (priority 1997, dated 2007).
# Read-outs that look alike come from different tables or passages of the source.
# Key:
# [1] = tested on: striatal synaptosomes (dopamine release); assay: cells; type: cell-based, rat; conditions: for EC50: read-out: Dopamine Release EC50
# [2] = target: T1, human muscle nAChR subtype (TE671/RD cells) (Homo sapiens, UniProt P02708+P07510+Q07001); assay: cell-based; type: cell-based; conditions: for Muscle Effect Ecmax: maximal activation as a percentage of that induced by L-nicotine
# T1 construct: These cells express receptors that have pharmacological; endogenous in cells; host or cells: TE671/RD (human embryonal rhabdomyosarcoma)
# T1 sequence (P02708 21-457): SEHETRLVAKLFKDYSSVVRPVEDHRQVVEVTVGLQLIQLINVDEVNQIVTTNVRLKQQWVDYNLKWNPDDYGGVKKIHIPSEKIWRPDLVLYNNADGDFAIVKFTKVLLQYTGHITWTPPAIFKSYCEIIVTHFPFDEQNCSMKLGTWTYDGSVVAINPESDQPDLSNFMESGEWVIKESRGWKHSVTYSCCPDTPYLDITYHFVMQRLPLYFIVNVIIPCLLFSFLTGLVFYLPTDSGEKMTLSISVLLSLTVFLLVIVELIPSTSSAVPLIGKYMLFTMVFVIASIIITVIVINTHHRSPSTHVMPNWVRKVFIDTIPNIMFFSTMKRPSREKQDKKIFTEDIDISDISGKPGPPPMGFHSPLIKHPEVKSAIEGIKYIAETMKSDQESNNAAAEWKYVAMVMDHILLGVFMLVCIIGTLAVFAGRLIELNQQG
# T1 sequence (P11230 24-501 partner): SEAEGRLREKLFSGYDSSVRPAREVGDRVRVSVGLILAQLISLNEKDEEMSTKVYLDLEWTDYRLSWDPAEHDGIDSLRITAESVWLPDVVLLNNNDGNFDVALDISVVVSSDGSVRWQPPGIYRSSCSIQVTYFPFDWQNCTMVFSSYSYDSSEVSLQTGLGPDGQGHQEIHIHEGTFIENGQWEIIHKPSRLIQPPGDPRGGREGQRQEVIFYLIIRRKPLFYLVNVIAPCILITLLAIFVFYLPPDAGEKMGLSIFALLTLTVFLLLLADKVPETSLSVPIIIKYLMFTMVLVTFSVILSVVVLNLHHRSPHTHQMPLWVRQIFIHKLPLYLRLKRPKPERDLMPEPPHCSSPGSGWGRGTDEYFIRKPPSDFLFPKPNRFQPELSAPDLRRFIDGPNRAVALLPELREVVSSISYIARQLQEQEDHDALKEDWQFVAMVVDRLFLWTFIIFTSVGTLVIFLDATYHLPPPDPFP
# T1 sequence (Q07001 22-517): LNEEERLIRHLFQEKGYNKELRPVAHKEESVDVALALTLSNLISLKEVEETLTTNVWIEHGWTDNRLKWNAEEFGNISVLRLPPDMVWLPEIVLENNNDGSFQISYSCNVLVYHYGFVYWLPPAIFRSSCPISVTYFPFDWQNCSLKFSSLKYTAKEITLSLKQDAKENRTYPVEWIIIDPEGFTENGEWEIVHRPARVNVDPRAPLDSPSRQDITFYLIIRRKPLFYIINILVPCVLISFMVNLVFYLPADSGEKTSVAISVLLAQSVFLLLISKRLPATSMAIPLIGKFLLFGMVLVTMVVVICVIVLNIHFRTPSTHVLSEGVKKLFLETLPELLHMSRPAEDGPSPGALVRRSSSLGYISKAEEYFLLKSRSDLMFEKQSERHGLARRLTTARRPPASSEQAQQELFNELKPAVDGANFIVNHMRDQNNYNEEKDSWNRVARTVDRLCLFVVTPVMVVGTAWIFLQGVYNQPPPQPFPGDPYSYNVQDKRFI
# T1 sequence (P07510 23-517): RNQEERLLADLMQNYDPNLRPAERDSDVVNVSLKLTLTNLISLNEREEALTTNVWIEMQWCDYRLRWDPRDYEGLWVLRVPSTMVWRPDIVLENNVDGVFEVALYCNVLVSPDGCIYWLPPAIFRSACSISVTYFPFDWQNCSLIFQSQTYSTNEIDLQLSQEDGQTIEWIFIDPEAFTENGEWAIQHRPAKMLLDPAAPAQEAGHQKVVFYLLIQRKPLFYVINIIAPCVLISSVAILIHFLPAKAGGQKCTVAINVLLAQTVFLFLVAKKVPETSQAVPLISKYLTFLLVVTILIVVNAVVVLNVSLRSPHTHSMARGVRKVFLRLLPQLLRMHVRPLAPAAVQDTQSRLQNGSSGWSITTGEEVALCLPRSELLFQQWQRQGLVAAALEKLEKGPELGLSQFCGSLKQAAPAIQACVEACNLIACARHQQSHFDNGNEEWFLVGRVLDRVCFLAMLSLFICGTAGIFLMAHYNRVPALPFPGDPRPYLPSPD
# Experimental: (§1) Cells were cultured in Dulbecco's modified Eagle's medium (Gibco/BRL) with 10% horse serum (Gibco/BRL), 5% fetal bovine serum (HyClone, Logan Utah), 1 mM sodium pyruvate, 4 mM L-Glutamine, and 50,000 units penicillin-streptomycin (Irvine Scientific). When cells were 80% confluent, they were plated to 6 well polystyrene plates (Costar). Experiments were conducted when the cells reached 100% confluency.
# (§2) On the day of the experiment, growth media was gently removed from the well and growth media containing ^86Rubidium chloride (10^6 μCi/mL) was added to each well. Cells were incubated at 37° C. for a minimum of 3 h. […] Next, cells were exposed to either 100 μM of test compound, 100 μM of L-nicotine (Acros Organics) or buffer alone for 4 min. Following the exposure period, the supernatant containing the released ^86Rb^+ was removed and transferred to scintillation vials. Scintillation fluid was added and released radioactivity was measured by liquid scintillation counting.
# Within each assay, each point had 2 replicates, which were averaged. The amount of ^86Rb^+ release was compared to both a positive control (100 μM L-nicotine) and a negative control (buffer alone) to determine the percent release relative to that of L-nicotine.
# (§3) When appropriate, dose-response curves of test compound were determined. The maximal activation for individual compounds (Emax) was determined as a percentage of the maximal activation induced by L-nicotine. The compound concentration resulting in half maximal activation (EC50) of specific ion flux was also determined.
# [3] = target: T2, rat ganglionic nAChR subtype (PC12 cells) (Rattus norvegicus, UniProt P04757+P12392); assay: cell-based; type: cell-based
# T2 construct: These cells express ganglion-like nAChRs; endogenous in cells; host or cells: PC12 (rat pheochromocytoma)
# T2 sequence (P04757 26-499): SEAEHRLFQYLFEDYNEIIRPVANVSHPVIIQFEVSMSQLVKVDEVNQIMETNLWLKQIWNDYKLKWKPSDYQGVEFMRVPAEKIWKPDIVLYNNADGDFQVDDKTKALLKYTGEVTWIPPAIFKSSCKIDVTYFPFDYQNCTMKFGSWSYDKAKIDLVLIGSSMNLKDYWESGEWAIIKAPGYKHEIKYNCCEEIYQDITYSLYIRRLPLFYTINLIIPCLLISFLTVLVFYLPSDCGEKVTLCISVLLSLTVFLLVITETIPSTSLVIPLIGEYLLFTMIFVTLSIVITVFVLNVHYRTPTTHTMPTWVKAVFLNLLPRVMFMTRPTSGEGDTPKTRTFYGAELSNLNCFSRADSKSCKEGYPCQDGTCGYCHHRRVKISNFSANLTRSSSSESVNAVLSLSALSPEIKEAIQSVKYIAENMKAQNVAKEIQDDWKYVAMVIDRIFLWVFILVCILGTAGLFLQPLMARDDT
# T2 sequence (P12392 21-495): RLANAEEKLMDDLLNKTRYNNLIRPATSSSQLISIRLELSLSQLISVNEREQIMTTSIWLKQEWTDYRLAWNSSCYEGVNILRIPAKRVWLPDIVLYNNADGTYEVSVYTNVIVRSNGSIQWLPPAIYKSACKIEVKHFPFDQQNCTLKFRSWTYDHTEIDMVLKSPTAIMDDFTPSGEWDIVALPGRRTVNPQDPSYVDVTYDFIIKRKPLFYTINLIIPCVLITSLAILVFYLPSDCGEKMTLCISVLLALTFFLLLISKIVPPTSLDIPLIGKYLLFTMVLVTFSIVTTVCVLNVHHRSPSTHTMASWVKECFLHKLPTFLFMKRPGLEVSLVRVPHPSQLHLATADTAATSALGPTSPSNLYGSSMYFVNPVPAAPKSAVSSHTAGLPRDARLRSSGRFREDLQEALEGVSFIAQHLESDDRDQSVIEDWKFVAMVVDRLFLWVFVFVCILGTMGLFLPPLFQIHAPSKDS
# Experimental: Activation of rat ganglion nAChRs was established on the pheochromocytoma clonal line PC12, which is a continuous clonal cell line of neural crest origin, derived from a tumor of the rat adrenal medulla.
# as §1, with “Nunc” for “polystyrene”, “(Nunclon) and coated with 0.03% poly-L-lysine (Sigma, dissolved in 100 mM boric acid).” for “(Costar).”, “80%” for “100%”
# as §2, with “nicotine” for “L-nicotine (Acros Organics)”
# Within each assay, each point had 2 replicates, which were averaged. The amount of ^86Rb^+ release was compared to both a positive control (100 μM nicotine) and a negative control (buffer alone) to determine the percent release relative to that of L-nicotine.
# as §3
# α4β2 nAChR subtype = target: T3, α4β2 nAChR subtype (Rattus norvegicus, UniProt P09483+P12390); assay: biochemical; conditions: inhibition of [3H]nicotine binding, rat cerebral cortex membranes
# T3 construct: The cerebral cortex was removed and placed in 20 volumes (weight:volume) of ice-old preparative buffer; from tissue; host or cells: rat cerebral cortex membranes
# T3 sequence (P09483 31-630): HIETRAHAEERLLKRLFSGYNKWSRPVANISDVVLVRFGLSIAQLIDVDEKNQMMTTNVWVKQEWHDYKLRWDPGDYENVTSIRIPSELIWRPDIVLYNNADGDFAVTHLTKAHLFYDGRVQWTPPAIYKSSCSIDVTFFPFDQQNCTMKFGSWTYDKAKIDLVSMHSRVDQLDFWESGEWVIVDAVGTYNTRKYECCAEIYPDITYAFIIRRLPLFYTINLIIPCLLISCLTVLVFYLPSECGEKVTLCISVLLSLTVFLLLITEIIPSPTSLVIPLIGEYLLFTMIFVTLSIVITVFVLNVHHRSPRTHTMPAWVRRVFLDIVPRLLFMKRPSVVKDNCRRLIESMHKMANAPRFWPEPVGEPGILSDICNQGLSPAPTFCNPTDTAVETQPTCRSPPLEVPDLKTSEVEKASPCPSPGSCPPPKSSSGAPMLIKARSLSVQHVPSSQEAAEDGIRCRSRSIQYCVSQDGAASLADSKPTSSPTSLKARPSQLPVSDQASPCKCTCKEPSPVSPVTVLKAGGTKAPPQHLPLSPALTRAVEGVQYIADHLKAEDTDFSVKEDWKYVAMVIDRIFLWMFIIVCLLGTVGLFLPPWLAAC
# T3 sequence (P12390 25-500): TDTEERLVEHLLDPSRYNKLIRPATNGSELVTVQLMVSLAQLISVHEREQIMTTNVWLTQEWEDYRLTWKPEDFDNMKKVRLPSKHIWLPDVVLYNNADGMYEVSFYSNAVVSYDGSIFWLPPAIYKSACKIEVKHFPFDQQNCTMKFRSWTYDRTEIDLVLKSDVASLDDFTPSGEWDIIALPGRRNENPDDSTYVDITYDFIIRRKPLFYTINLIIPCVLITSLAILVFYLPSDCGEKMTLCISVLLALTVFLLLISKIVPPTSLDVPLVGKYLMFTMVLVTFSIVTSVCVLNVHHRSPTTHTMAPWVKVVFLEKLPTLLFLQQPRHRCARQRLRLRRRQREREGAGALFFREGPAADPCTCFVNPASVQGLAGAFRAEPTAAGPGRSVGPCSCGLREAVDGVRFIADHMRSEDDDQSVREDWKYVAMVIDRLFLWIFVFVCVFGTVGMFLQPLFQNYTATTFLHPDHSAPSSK
# [4] = maximal activation as a percentage of that induced by L-nicotine
# [5] = rat striatal synaptosomes, [3H]dopamine release
# [6] = 86Rb+ efflux, read-out: Ganglion Effect EC50
Structure (SMILES),EC50 ([1]; Rattus norvegicus),"Dopamine Release Ecmax [1, 4]",Muscle Effect Ecmax [2],EC50 [3],"Ganglion Effect Ecmax [3, 4]",logP (physchem),Ki (α4β2 nAChR subtype),"EC50 [1, 5]",amounts causing muscle effects relative to those required to cause dopamine release ([2]; muscle effects vs dopamine release),"EC50 [3, 6]",amounts causing effects upon ganglia relative to those required to cause dopamine release ([3]; ganglia effects vs dopamine release),EC50 [2],Dopamine Release Ecmax [1],Ganglion Effect Ecmax [3],"EC50 ([2]; 86Rb+ efflux, TE671/RD cells, read-out: Muscle Effect EC50)"
"CCOc1cncc(C2CC3CCN2CC3)c1.Cl.Cl (stereo not drawn) [Sample No. 7, 2-(5-ethoxy-3-pyridyl)-1-azabicyclo[2.2.2]octane dihydrochloride]",0.005 µM,40,137,10 µM,86,1.82,–,–,–,–,–,–,–,–,–
"Cl.Cl.Cl.Nc1cncc(C2CC3CCN2CC3)c1 (stereo not drawn) [Sample No. 6, 2-(5-amino-3-pyridyl)-1-azabicyclo[2.2.2]octane trihydrochloride]",–,43,100,–,75,0.48,0.0026 µM,0.007 µM,many times,10 µM,many times,–,–,–,–
"c1cncc([C@@H]2C[C@@H]3CCN2C3)c1 (relative stereo) [Sample No. 4, endo-2-(3-pyridyl)-1-azabicyclo[2.2.1]heptane]",0.033 µM,114,130,0.15 µM,100,0.94,–,–,–,–,–,–,–,–,–
"CC(C)Oc1cncc(C2CC3CCN2CC3)c1.Cl.Cl (stereo not drawn) [Sample No. 8, 2-(5-isopropoxy-3-pyridyl)-1-azabicyclo[2.2.2]octane dihydrochloride]",–,–,–,–,94,1.76,–,–,–,–,–,–,–,–,–
"c1cncc([C@H]2C[C@@H]3CCN2C3)c1 (relative stereo) [Sample No. 3, exo 2-(3-pyridyl)-1-azabicyclo[2.2.1]heptane]",0.006 µM,130,130,0.15 µM,100,0.94,–,–,–,–,–,–,–,–,–
"Brc1cncc(C2CC3CCN2CC3)c1 (racemic) [Sample No. 2, (+/−)-2-(5-bromo-3-pyridyl)-1-azabicyclo[2.2.2]octane]",0.002 µM,43,133,3 µM,106,2.05,–,–,–,–,–,3 µM,–,–,–
"CN1CCC[C@H]1c1cccnc1 [C-1, (S)-(−)-nicotine, reference compound]",–,–,–,–,–,–,–,–,–,–,–,–,100,100,–
"c1cncc(C2C3CCN2CC3)c1 (stereo not drawn) [Sample No. 5, 7-(3-pyridyl)-1-azabicyclo[2.2.1]heptane]",0.004 µM,93,130,–,120,0.93,0.007 µM,–,–,–,–,–,–,–,–
"c1cncc(C2CC3CCN2CC3)c1 (racemic) [Sample No. 1, (+/−)-2-(3-pyridyl)-1-azabicyclo[2.2.2]octane]",–,40,110,–,85,1.26,–,0.002 µM,–,1.1 µM,–,–,–,–,0.059 µM
